According to PMC10789121, “Amine Basicity of Quinoline ATP Synthase Inhibitors Drives Antibacterial Activity against Pseudomonas aeruginosa” (ACS Medicinal Chemistry Letters, 2023):
Converted amounts (≈) assume the structure as drawn. “And” between values parts separate entries of the source, which are not always exact repeats. Identical values can stand only once. Like-named read-outs stand apart in the source and are kept apart here.

Tests used:
PA ATP synthase [1] = molecular target: T1, PA ATP synthase (Pseudomonas aeruginosa, UniProt Q9HT15); assay: Inhibition of NADH-driven PA ATP synthesis activity in DK8/pASH20 inverted membrane vesicles (end-point luciferin/luciferase assay); assay type: biochemical; conditions: PA ATP synthase IC50 (absolute), NADH-driven ATP synthesis, EC DK8/pASH20 inverted membrane vesicles
T1 construct: a whole operon plasmid that expresses; made in house; host or cells: Escherichia coli DK8 (K-12 strain lacking the unc operon) transformed with pASH20; used as inverted membrane vesicles, not purified

[2] = tested on: PA electron transport chain; assay: Electron transport activity (ACMA fluorescence quenching) in PA 9027 inverted membrane vesicles; assay type: biochemical, Pseudomonas aeruginosa; conditions: for PA ETC IC50: PA 9027 inverted membrane vesicles
Source text: The assay for PA ATP synthase activity in EC DK8/pASH20 membrane vesicles requires a functional EC ETC, so potent inhibition of the EC ETC by any compound would interfere with the determination of its IC50 for PA ATP synthase. […] Furthermore, potent inhibition of PA ETC could be an alternative mechanism of action for the antibacterial activity of the current series.
(§1) Determination of electron transport activity. As previously described,11 inverted membrane vesicles from PA 9027 or E. coli DK8 pASH20 were added to HMK buffer containing 0.3 µg/mL 9-amino-6-chloro-2-methoxyacridine (ACMA) and 0-64 µg/mL test compound in DMSO. After measurement of baseline ACMA fluorescence for 60 s, redox-driven H+ pumping was initiated by addition of NADH to 0.8 mM, and fluorescence quenching was monitored for 120 s before addition of nigericin to 0.5 µg/mL. Relative activity is reported as the minimum fluorescence value normalized to the maximum fluorescence value following addition of nigericin.

[3] = tested on: EC electron transport chain; assay: Electron transport activity (ACMA fluorescence quenching) in E. coli DK8 pASH20 inverted membrane vesicles; assay type: biochemical, Escherichia coli
Protocol: as §1

[4] = parameters: method as in earlier work; conditions: value of the C2 functional group; cited from earlier work
PA 9027 [5] = assay: Antimicrobial susceptibility, broth microdilution MIC; assay type: cell-based; conditions: Pseudomonas aeruginosa, read-out: MIC PA 9027
Protocol: (§2) Pseudomonas aeruginosa (ATCC 9027), Drug-Resistant Pseudomonas aeruginosa from ATCC Panel MP-23 (BAA-2108, BAA-2109, BAA-2110), and Pseudomonas aeruginosa efflux knockout GKCW120 (PD6)14 provided by Zgurskaya and co-workers at the University of Oklahoma.
(§3) Antimicrobial Susceptibility Assay Procedure. Susceptibility testing was performed in biological triplicate, using the broth microdilution method as outlined by the Clinical and Laboratory Standards Institute. Briefly, minimum inhibitory concentrations (MIC) determinations were carried out in 96-well microtiter plates with 2-fold serial dilutions of the compounds from 0 […]
(§4) Briefly, to each well 1 µL of compound in DMSO, 89 µL of TSB, and 10 µL of bacterial inoculum, grown from frozen stock in 10 mL of TSB […]
(§5) for 4-6 hours, were added. […]
(§6) on a Biotek Synergy HTX Multi-mode plate reader. Data was processed by background subtracting the media absorbance and then normalizing the data to full bacterial growth with only vehicle.
(§7) MIC is defined as the lowest concentration of antibiotic or antibiotic/adjuvant combination that achieves ≥ 85% growth inhibition, which corresponds to no visible growth. […]

[6] = tested on: PΔ6 (efflux knockout strain of PA); assay: as above; assay type: cell-based; conditions: Pseudomonas aeruginosa, read-out: MIC PΔ6
Protocol: as §2, §3, §4, §5, §6, §7

[7] = tested on: BAA 2108 (MDRPA clinical isolate); assay: as above; assay type: cell-based, Pseudomonas aeruginosa; conditions: for MIC: Pseudomonas aeruginosa
Protocol: as §2, §3, §4, §5, §6, §7

[8] = tested on: BAA 2109 (MDRPA clinical isolate); assay: as above; assay type: cell-based, Pseudomonas aeruginosa; conditions: for MIC: Pseudomonas aeruginosa
Protocol: as §2, §3, §4, §5, §6, §7

[9] = tested on: BAA 2110 (MDRPA clinical isolate); assay: as above; assay type: cell-based, Pseudomonas aeruginosa; conditions: for MIC: Pseudomonas aeruginosa
Protocol: as §2, §3, §4, §5, §6, §7

PA ATP synthase [10] = molecular target: T1, PA ATP synthase; parameters: method as in PMID 37922420; conditions: previously determined; cited from earlier work
[11] = tested on: PA electron transport chain; parameters: method as in PMID 37922420; conditions: previously determined; cited from earlier work
PA 9027 [12] = tested on: PA 9027; parameters: method as in PMID 37922420; conditions: cited from earlier work
[13] = tested on: PΔ6 (efflux knockout strain of PA); parameters: method as in PMID 37922420; conditions: cited from earlier work
[14] = tested on: BAA 2108 (MDRPA clinical isolate); parameters: method as in PMID 37922420; conditions: cited from earlier work
[15] = tested on: BAA 2109 (MDRPA clinical isolate); parameters: method as in PMID 37922420; conditions: cited from earlier work
[16] = tested on: BAA 2110 (MDRPA clinical isolate); parameters: method as in PMID 37922420; conditions: cited from earlier work
[17] = BAA2108, >85% reduction in growth at OD 590 nm, n = 3, read-out: MIC BAA 2108
[18] = BAA2109, >85% reduction in growth at OD 590 nm, n = 3, read-out: MIC BAA 2109
[19] = BAA2110, >85% reduction in growth at OD 590 nm, n = 3, read-out: MIC BAA 2110
[20] = >85% reduction in growth at OD 590 nm, n = 3
[21] = BAA2108, read-out: MIC BAA 2108
[22] = BAA2109, read-out: MIC BAA 2109
[23] = BAA2110, read-out: MIC BAA 2110

SMILES	IC50 (PA ATP synthase [1])	PA ETC IC50 [2]	% EC ETC Inhibition at 4 µg/mL [3]	approximate pKa (NH+) of C2 side chain conjugate acid [4]	MIC (PA 9027 [5])	MIC [6]	MIC [7, 17]	MIC [8, 18]	MIC [9, 19]	% PA ETC Inhibition at 32 µg/mL [2]	further results
CSc1nc2ccccc2cc1CNCCc1cnc[nH]1 [Compound 21]	53.6 µM	39 µg/mL	5%	∼7							
CN(C)CCCCCNCc1cc2ccccc2nc1SCc1ccccc1 [Compound 10]	~5.08 µM and 5.08 µM	57 µg/mL	14%	above 6	> 128 µg/mL	64 µg/mL	64 µg/mL	128 µg/mL	64 µg/mL		
CN(C)CCCNCc1cc2ccccc2nc1SCc1ccccc1 [Compound 6]	16.4 µM	44 µg/mL	3%	above 6	> 128 µg/mL	16 µg/mL	64 µg/mL	64 µg/mL	32 µg/mL		
CN(C)Cc1ccc(CNCc2cc3ccccc3nc2SCc2ccccc2)cc1 [Compound 2]											IC50 (PA ATP synthase [10]): ~4.68 µM; PA ETC IC50 [11]: 27 µg/mL; MIC PA 9027 (PA 9027 [12]): >128 µg/mL; MIC PΔ6 [13]: 16 µg/mL (≈ 37.4 µM); MIC BAA 2108 [14]: 64 µg/mL (≈ 150 µM); MIC BAA 2109 [15]: >128 µg/mL; MIC BAA 2110 [16]: >128 µg/mL
c1ccc(CSc2nc3ccccc3cc2CNCCc2cnc[nH]2)cc1 [Compound 22]	~5.34 µM and 5.34 µM	15 µg/mL			> 128 µg/mL	16 µg/mL	32 µg/mL	64 µg/mL	> 128 µg/mL		EC ETC IC50 ([3]; E. coli DK8 pASH20 inverted membrane vesicles): 14 µg/mL; MIC BAA 2108 [7, 20]: displayed antibacterial activity; MIC BAA 2109 [8, 20]: displayed antibacterial activity
CSc1nc2ccccc2cc1CNCCCN(C)C [Compound 5]	149 µM		9%							54%	
Cc1cc(C)nc(CCNCc2cc3ccccc3nc2SCc2ccccc2)n1 [Compound 20]	7.24 µM		17%							67%	
CCN1CCC(CCNCc2cc3ccccc3nc2SCc2ccccc2)CC1 [Compound 14]	2.38 µM	26 [26] μg/mL	16%	above 6	> 128 µg/mL	16 µg/mL					MIC [7, 21]: 32 µg/mL; MIC [8, 22]: 64 µg/mL; MIC [9, 23]: 16 µg/mL
CSc1nc2ccccc2cc1CNCc1ccc(N(C)C)cc1 [Compound 11]	14.8 µM		4%	∼5							% PA ETC Inhibition at 4 µg/mL ([2]; 4 µg/mL): 20%
CSc1nc2ccccc2cc1CNCCC1CCN(C2CCCC2)CC1 [Compound 15]	54.7 µM	8.3 µg/mL	6%								
O=C(N[C@H](CO)[C@H](O)c1ccc([N+](=O)[O-])cc1)C(Cl)Cl [chloramphenicol, reference compound]						4 µg/mL	32 µg/mL	128 µg/mL	128 µg/mL		MIC (PA 9027 [5]; [20]): 128 µg/mL
CSc1nc2ccccc2cc1CNCCc1cccn1C [Compound 17]	16.1 µM		0%	∼0.5						65%	
CCN1CCC(CCNCc2cc3ccccc3nc2SC)CC1 [Compound 13]	114 µM		20%							74%	
c1ccc(CSc2nc3ccccc3cc2CNCCC2CCN(C3CCCC3)CC2)cc1 [Compound 16]	2.18 µM	14 [14] μg/mL	9%	> 6	> 128 µg/mL	8 µg/mL					MIC [7, 21]: 32 µg/mL; MIC [8, 22]: 64 µg/mL; MIC BAA 2110 [9, 20]: inactive; MIC [9, 23]: > 128 µg/mL
CSc1nc2ccccc2cc1CNCCCCCN(C)C [Compound 9]	59.8 µM		22%							74%	
CNC(C)C1CCC(N)C(OC2C(N)CC(N)C(OC3OCC(C)(O)C(NC)C3O)C2O)O1 (centres unmarked) [gentamicin, reference compound]					2 to 4 µg/mL	> 4 µg/mL	16 µg/mL	2 µg/mL	4 to 8 µg/mL		
Cn1cccc1CCNCc1cc2ccccc2nc1SCc1ccccc1 [Compound 18]	12.9 µM and 10.3 µM		5%							62%	
CSc1nc2ccccc2cc1CNCCCCN(C)C [Compound 7]	224 µM		6%							72%	
CSc1nc2ccccc2cc1CNCCc1nc(C)cc(C)n1 [Compound 19]	198 µM		1.3%	∼1							% PA ETC Inhibition ([2]; concentration not given): 20%
CN(C)CCCCNCc1cc2ccccc2nc1SCc1ccccc1 [Compound 8]	2.63 µM	26 [26] μg/mL	0%	> 6	> 128 µg/mL	16 µg/mL	64 µg/mL	64 µg/mL	32 µg/mL		
